Numbers after ± are expanded uncertainties.
How the values were obtained:
[1] = 100 kPa, Liquid, Vibrating tube method
[2] = xn = mol fraction of the nth substance listed; conditions: 100 kPa, Liquid, Vibrating tube method

CCCC[n+]1ccn(C)c1.O=S(=O)([N-]S(=O)(=O)C(F)(F)F)C(F)(F)F
[1]
Conditions	mass density [kg/m3]
293.15 K	1442.3 ± 4
298.15 K	1435.96 ± 4
303.15 K	1431.96 ± 4
308.15 K	1427.23 ± 4
313.15 K	1422.19 ± 4
318.15 K	1417.89 ± 4
323.15 K	1412.96 ± 4

CCCCn1cc[n+](C)c1.F[P-](F)(F)(F)(F)F [1-butyl-3-methylimidazolium hexafluorophosphate]
[1]
Conditions	mass density [kg/m3]
293.15 K	1370.73 ± 4
298.15 K	1366.5 ± 4
303.15 K	1361.63 ± 4
308.15 K	1359.45 ± 4
313.15 K	1355.23 ± 4
318.15 K	1351.63 ± 4
323.15 K	1347.23 ± 4

CCCCn1cc[n+](C)c1.F[P-](F)(F)(F)(F)F [1-butyl-3-methylimidazolium hexafluorophosphate] + COC(=O)OC
mass density [kg/m3], [2]
Conditions	x1 = 0.034	x1 = 0.0734	x1 = 0.1196	x1 = 0.1744	x1 = 0.2407	x1 = 0.3222	x1 = 0.4251	x1 = 0.559	x1 = 0.7404	x1 = 1
293.15 K	1099.2 ± 16	1128.63 ± 15	1159.82 ± 13	1189.04 ± 11	1220.08 ± 9.1	1249.42 ± 7.5	1278.97 ± 6.4	1308.93 ± 5.6	1339.9 ± 4.9	1370.73 ± 4
298.15 K	1092.76 ± 17	1122.91 ± 15	1154.74 ± 13	1183.63 ± 11	1214.03 ± 9.1	1244.28 ± 7.6	1274.43 ± 6.4	1303.88 ± 5.5	1335.38 ± 4.9	1366.5 ± 4
303.15 K	1086.29 ± 17	1116.15 ± 15	1148.32 ± 13	1177.52 ± 11	1208.51 ± 9.2	1238.99 ± 7.7	1269.31 ± 6.4	1298.92 ± 5.5	1330.3 ± 4.9	1361.63 ± 4
308.15 K	1080.03 ± 17	1110.74 ± 15	1142.49 ± 13	1173.19 ± 11	1203.38 ± 9.2	1234.34 ± 7.8	1265.31 ± 6.5	1295.41 ± 5.6	1327.51 ± 4.9	1359.45 ± 4
313.15 K	1073.79 ± 17	1104.95 ± 15	1136.01 ± 13	1167.14 ± 11	1197.82 ± 9.2	1229.08 ± 7.8	1260.15 ± 6.5	1290.91 ± 5.6	1322.98 ± 4.9	1355.23 ± 4
318.15 K	1067.23 ± 17	1098.5 ± 15	1130.22 ± 13	1161.77 ± 11	1192.91 ± 9.3	1224.39 ± 7.8	1255.4 ± 6.6	1286.76 ± 5.7	1318.91 ± 5	1351.63 ± 4
323.15 K	1060.39 ± 17	1092.27 ± 16	1125.56 ± 13	1156.96 ± 11	1187.95 ± 9.3	1219.55 ± 7.9	1250.82 ± 6.6	1282.14 ± 5.7	1314.13 ± 5	1347.23 ± 4

CCCCn1cc[n+](C)c1.F[B-](F)(F)F [1-butyl-3-methylimidazolium tetrafluoroborate]
[1]
Conditions	mass density [kg/m3]
293.15 K	1202.47 ± 4
298.15 K	1200.1 ± 4
303.15 K	1195.48 ± 4
308.15 K	1191.65 ± 4
313.15 K	1187.83 ± 4
318.15 K	1184.13 ± 4
323.15 K	1180.33 ± 4

COC(=O)OC [dimethyl carbonate]
[1]
Conditions	mass density [kg/m3]
293.15 K	1069.83 ± 4
298.15 K	1063.25 ± 4
303.15 K	1056.63 ± 4
308.15 K	1050.08 ± 4
313.15 K	1043.44 ± 4
318.15 K	1036.62 ± 4
323.15 K	1029.88 ± 4

COC(=O)OC [dimethyl carbonate] + CCCCn1cc[n+](C)c1.F[P-](F)(F)(F)(F)F
[2], x2 = 0
Conditions	mass density [kg/m3]
293.15 K	1069.83 ± 4
298.15 K	1063.25 ± 4
303.15 K	1056.63 ± 4
308.15 K	1050.08 ± 4
313.15 K	1043.44 ± 4
318.15 K	1036.62 ± 4
323.15 K	1029.88 ± 4

From the NIST ThermoML archive (doi:10.1016/j.jct.2018.04.005)
